Like-named read-outs stand apart in the source and are kept apart here. *1 amine or outer side, *2 acyl side, *3 side chain or, on linkers, in order; H or OH if unused. Where no end group is shown, it is not given here. Side-chain parts run from the residue outwards. [ ]: non-standard residue; d: D form. The star is where a group is joined. PEG8 = NCCOCCOCCOCCOCCOCCOCCOCCOCCC(=O)O; Phe(4-NH2) = Nc1ccc(C[C@H](N)C(=O)O)cc1; γGlu = O=C(O)[C@H](CCC(=O)[*:2])N[*:1]; X6 = CCCCCCCCCCCCCCCCC(CC(=O)*)C(=O)O; X3 = CCCCCCCCCCCCCCC(CC(=O)*)C(=O)O; Palmitoyl = CCCCCCCCCCCCCCCC(=O)*; PEG4 = NCCOCCOCCOCCOCCC(=O)O; Aib = CC(C)(N)C(=O)O
Key:
Assay type in all cases: cell-based
glucagon receptor = biological target: T1, glucagon receptor (Homo sapiens, UniProt P47871); test: cAMP induction, firefly luciferase reporter assay in HEK293 cells co-transfected with glucagon receptor
T1 construct: expressed in transfected cells; host or cells: HEK293
Text: (§1) This example describes an exemplary method of testing the biological activity of the peptides of the present disclosures, which method involves assaying cAMP synthesis.

GIP receptor = biological target: T2, GIP receptor (Homo sapiens, UniProt P48546); test: cAMP induction, firefly luciferase reporter assay in HEK293 cells co-transfected with GIP receptor
T2 sequence (P48546 22-466): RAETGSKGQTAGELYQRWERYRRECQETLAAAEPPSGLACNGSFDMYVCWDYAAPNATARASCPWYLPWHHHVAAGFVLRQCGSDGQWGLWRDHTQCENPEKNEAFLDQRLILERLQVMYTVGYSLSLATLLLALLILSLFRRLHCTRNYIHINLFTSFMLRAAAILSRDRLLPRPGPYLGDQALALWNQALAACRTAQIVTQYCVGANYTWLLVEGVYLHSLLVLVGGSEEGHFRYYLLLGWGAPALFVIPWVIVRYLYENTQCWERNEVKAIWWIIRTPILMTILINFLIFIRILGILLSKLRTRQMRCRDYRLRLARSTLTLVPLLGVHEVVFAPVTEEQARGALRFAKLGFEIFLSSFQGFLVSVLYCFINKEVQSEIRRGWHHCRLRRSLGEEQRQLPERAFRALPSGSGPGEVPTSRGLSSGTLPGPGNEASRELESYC

GLP-1 receptor = biological target: T3, GLP-1 receptor (Homo sapiens, UniProt P43220); test: cAMP induction, firefly luciferase reporter assay in HEK293 cells co-transfected with GLP-1 receptor
T3 construct: expressed in transfected cells; host or cells: HEK293
Text: as §1

[1] = Glucagon Receptor EC50, Table 11, Example 18
[2] = GIP Receptor EC50, Table 11, Example 18
[3] = GLP-1 Receptor EC50, Table 11, Example 18
[4] = EC50 (nM) at glucagon receptor, Table 16, Example 24
[5] = EC50 (nM) at GIP receptor, Table 16, Example 24
[6] = EC50 (nM) at GLP-1 receptor, Table 16, Example 24

T1 sequence (P47871 26-477): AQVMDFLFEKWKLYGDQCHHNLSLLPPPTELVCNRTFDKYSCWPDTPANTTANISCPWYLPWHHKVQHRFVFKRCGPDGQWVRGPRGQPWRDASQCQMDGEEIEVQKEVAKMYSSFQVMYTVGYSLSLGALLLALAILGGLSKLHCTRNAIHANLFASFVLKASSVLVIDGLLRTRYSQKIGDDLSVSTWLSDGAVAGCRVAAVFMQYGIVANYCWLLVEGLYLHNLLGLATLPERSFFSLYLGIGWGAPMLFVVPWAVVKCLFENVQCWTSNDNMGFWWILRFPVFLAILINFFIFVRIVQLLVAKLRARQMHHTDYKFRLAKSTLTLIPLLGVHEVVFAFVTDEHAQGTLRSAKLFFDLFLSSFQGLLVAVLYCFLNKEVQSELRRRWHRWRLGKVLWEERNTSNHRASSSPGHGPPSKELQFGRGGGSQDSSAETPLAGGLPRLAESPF
T3 sequence (P43220 24-463): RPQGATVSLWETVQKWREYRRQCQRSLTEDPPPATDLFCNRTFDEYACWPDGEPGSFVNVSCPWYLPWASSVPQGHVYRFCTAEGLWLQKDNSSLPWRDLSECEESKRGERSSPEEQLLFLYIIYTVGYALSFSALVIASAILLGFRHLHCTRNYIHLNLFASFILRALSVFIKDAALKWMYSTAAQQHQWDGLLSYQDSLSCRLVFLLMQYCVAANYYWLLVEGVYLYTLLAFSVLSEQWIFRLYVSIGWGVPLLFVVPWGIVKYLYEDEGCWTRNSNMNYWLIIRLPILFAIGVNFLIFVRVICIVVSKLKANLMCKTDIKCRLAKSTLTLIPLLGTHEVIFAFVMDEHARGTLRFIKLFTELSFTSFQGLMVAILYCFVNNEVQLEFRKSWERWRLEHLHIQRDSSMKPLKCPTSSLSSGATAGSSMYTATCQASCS

Substance: H-H[Aib]QGTFTSDYSKYLDERAAQDFVQWLLDGGPSSGAPPPSK([PEG4-γGlu-Palmitoyl])G-NH2 [SEQ ID NO: 158]
- EC50 (glucagon receptor; [1]): 0.004 nM
- EC50 (GIP receptor; [2]): 0.005 nM
- EC50 (GLP-1 receptor; [3]): 0.003 nM

Substance: H[Aib]QGTFTSDYSKYLDERAAQDFVQWLLAGGPSSGAPPPSK([γGlu-γGlu-Palmitoyl])G-NH2 [SEQ ID NO: 203]
- EC50 (glucagon receptor; [4]): 0.003 nM
- EC50 (GIP receptor; [5]): 0.007 nM
- EC50 (GLP-1 receptor; [6]): 0.001 nM

Substance: H[Aib]QGTFTSDYSKYLDERAAQDFVQWLLDGGPSSGAPPPSK(X3)G-NH2 [SEQ ID NO: 176]
- EC50 (glucagon receptor): 0.012 nM
- EC50 (GIP receptor; GIP-1 Receptor EC50, Table 10, Example 16): 0.101 nM
- EC50 (GLP-1 receptor; GLP-1 Receptor EC50, Table 10, Example 16): 0.014 nM

Substance: H[Aib]QGTFTSDYSKYLDERAAQDFVQWLLDGGPSSGAPPPSK(X6)G-NH2 [SEQ ID NO: 156]
- EC50 (glucagon receptor): 0.003 nM
- EC50 (GIP receptor; [2]): 0.006 nM
- EC50 (GLP-1 receptor; [3]): 0.003 nM

Substance: H[Aib]QGTFTSDYSKYLDERAAQDFVQWLLDGGPSSGAPPPSK([PEG8-γGlu-Palmitoyl])G-NH2 [SEQ ID NO: 159]
- EC50 (glucagon receptor; [1]): 0.006 nM
- EC50 (GIP receptor; [2]): 0.002 nM
- EC50 (GLP-1 receptor; [3]): 0.005 nM

Substance: H[Aib]QGTFTSDYSKYLDERAAQDFVQWLLDGGPSSGAPPPSK([γGlu-γGlu-Palmitoyl])G-NH2 [SEQ ID NO: 89]
- EC50 (glucagon receptor; [4]): 0.006 nM
- EC50 (GIP receptor; [5]): 0.028 nM
- EC50 (GLP-1 receptor; EC50 (nM) at GLP-1 receptor, Table 15, Example 23): 0.004 nM
- EC50 (GLP-1 receptor; [6]): 0.005 nM

Substance: H[Aib]QGTFTSDYSKYLDERAAQDFVQWLLDGGPSSGAPPPS[Phe(4-NH2)](X6)G-NH2 [SEQ ID NO: 146]
- EC50 (glucagon receptor): 0.007 nM
- EC50 (GIP receptor): 0.052 nM
- EC50 (GLP-1 receptor): 0.007 nM

Substance: H[Aib]QGTFTSDYSKYLDERAAQDFVQWLLDGGPSSGAPPPS[Phe(4-NH2)]([γGlu-γGlu-Palmitoyl])G-NH2 [SEQ ID NO: 145]
- EC50 (glucagon receptor): 0.002 nM
- EC50 (GIP receptor): 0.017 nM
- EC50 (GLP-1 receptor): 0.002 nM

Reference: patent US9587005B2 (priority 2010, dated 2017)
